Reference: patent US6608032B1, “Medicinal compositions” (Takara Shuzo Co., Ltd., priority 1999, dated 2003)

Tests used:
[1] = tested on: RAW264.7 cells; assay: LPS-induced IL-10 production in RAW264.7 cells; format: cell-based; conditions: 5 μl of 10 mM solution per 0.5 ml, 5 hours before LPS; 18 hours; FIG. 18
Procedure: RAW264.7 cells (ATCC TIB 71) were suspended in Dulbecco's modified Eagle's medium (Bio Whittaker, 12-604F) containing 10% fetal calf serum (Gibco) at a concentration of 3×10^5 cells/ml. 0.5 ml of the suspension was added to each well of a 48-well microtiter plate and the plate was incubated at 37° C. overnight in the presence of 5% CO2. 5 μl of a solution containing agarobiose or agarohexaose in Referential Example 1 at a concentration of 10 mM in water was added to the well. After incubation for additional 5 hours, 5 μl of a solution of lipopolysaccharide (LPS, Sigma, L-2012) at a concentration of 100 μg/ml in water was added the well. After incubation for 18 hours, a culture supernatant was collected. The content of interleukin 10 (IL-10) in the culture supernatant was measured using enzyme immuno sandwich assay. As a control, a group to which the sample or the LPS aqueous solution was not added was provided. All of the measurements were carried out in duplicate.

[2] = tested on: cyclooxygenase 2 mRNA; assay: LPS-induced cyclooxygenase 2 mRNA synthesis in RAW264.7 cells (RT-PCR); format: cell-based; conditions: 50 μl of 10 mM solution per 5 ml, added 0 or 6 hours before LPS
Procedure: (2) RAW264.7 cells (ATCC TIB 71) were suspended in Dulbecco's modified Eagle's medium (Bio Whittaker, 12-604F) containing 10% fetal calf serum (Gibco) at a concentration of 3×10^5 cells/ml. 5 ml of the suspension was added to each well of a 6-well microtiter plate and the plate was incubated at 37° C. overnight in the presence of 5% CO2. 50 μl of a solution containing agarobiose or agarohexaose at a concentration of 10 mM in water was added to the well. The plate was incubated for 0 or 6 hours. 50 μl of a solution containing lipopolysaccharide (LPS, Sigma, L-2012) at a concentration of 100 μg/ml in water was added to the well. The plate was incubated for additional 5 hours. The culture supernatant was removed, and 1 ml of a solution of Catrimox-14 (a product of Iowa Biotechnology sold by Takara Shuzo, WA002) was added to the well. After pipetting, the solution was collected. An RNA was prepared according to the attached protocol. The RNA prepared as described above was subjected to RT-PCR using RNA-PCR Kit (AMV) Ver. 2.1 (Takara Shuzo, R019A). A reverse transcription reaction was conducted using a random primer (N6) (Takara Shuzo, 3801) at 30° C. for 10 minutes, at 42° C. for 30 minutes and 99° C. for 5 minutes. […]

[3] = tested on: enzymes involved in the synthesis of prostaglandin E2 from arachidonic acid; assay: Prostaglandin E2 generation from arachidonic acid, sample added directly to crude enzyme fraction; format: biochemical; conditions: 1 μL of 100 mM agarobiose, 100 mM agarohexaose, 10 mM DGE or 13 mM nimesulide added to 100 μL crude enzyme fraction; FIG. 15
Procedure: 2.5 μL of 200 mM aqueous solution of glutathione, 2.5 μL of a suspension containing L-adrenaline at a concentration of 200 mM in water, and 1 μL of 100 mM aqueous solution of agarobiose, 100 mM aqueous solution of agarohexaose or 10 mM aqueous solution of DGE as a sample were added to 100 μL of the control sample from the crude enzyme fraction prepared in Example 15. 1 μL of water was added as a negative control. 1 μL of 13 mM nimesulide (Cayman, 70640) solution was added as a positive control. 1 μL of 3 mM arachidonic acid solution was then added to start the reaction. The mixture was reacted at 37° C. for 5 minutes. The reaction was stopped by heating at 100° C. for 2 minutes. The content of prostaglandin E2 in the reaction mixture was measured using Prostaglandin E2 ELISA Kit.

[4] = tested on: α-glucosidase; assay: α-glucosidase inhibition, crude enzyme preparation from rat small intestine mucous membrane; format: biochemical
Procedure: (§1) (2) A crude enzyme preparation obtained from rat small intestine mucous membrane prepared according to the method as described in Arne Dahlqvist, Anal. Biochem., 7:18-25 (1964) was used to measure the activity of inhibiting α-glucosidase of agarotetraose or agarohexaose prepared in Referential Example 1 in vitro as follows.
(§2) For the enzymatic reaction, 80 μl of a solution of sucrose, maltose, treharose or soluble starch as a substrate in 10 mM phosphate buffer (pH 7.0) at a final concentration of 100 mM (0.5% in case of soluble starch) was added to 10 μl of a test sample solution appropriately diluted with the same buffer. 10 μl of the crude enzyme solution prepared from rat small intestine was added thereto. The mixture was reacted at 37° C. for 20 minutes. The enzymatic activity was determined as follows as the amount of glucose generated in the reaction mixture: 3 ml of a reagent for glucose measurement (Wako Pure Chemical Industries) was added to the reaction mixture, reaction was carried out at 37° C. for 5 minutes, and then the absorbance at 505 nm was measured. The inhibitory activity on the digestion of each substrate was expressed as a remaining activity (%) against the control, which was calculated based on the activity measured as described above for each of four different concentrations. The remaining activities (%) on the respective substrates in the presence of agarotetraose are shown in Table 2, whereas the remaining activities (%) on the respective substrates in the presence of agarohexaose are shown in Table 3.

[5] = target: α-glucosidase (Rattus norvegicus, UniProt P23739); assay: as above; format: biochemical
Procedure: as §1, §2

[6] = substrate Soluble starch, 0.2 mM
[7] = substrate Soluble starch, 0.5 mM
[8] = substrate Soluble starch, 1.0 mM
[9] = substrate Soluble starch, 2.0 mM

Sequence of α-glucosidase (Rattus norvegicus, UniProt P23739) (P23739 whole entry): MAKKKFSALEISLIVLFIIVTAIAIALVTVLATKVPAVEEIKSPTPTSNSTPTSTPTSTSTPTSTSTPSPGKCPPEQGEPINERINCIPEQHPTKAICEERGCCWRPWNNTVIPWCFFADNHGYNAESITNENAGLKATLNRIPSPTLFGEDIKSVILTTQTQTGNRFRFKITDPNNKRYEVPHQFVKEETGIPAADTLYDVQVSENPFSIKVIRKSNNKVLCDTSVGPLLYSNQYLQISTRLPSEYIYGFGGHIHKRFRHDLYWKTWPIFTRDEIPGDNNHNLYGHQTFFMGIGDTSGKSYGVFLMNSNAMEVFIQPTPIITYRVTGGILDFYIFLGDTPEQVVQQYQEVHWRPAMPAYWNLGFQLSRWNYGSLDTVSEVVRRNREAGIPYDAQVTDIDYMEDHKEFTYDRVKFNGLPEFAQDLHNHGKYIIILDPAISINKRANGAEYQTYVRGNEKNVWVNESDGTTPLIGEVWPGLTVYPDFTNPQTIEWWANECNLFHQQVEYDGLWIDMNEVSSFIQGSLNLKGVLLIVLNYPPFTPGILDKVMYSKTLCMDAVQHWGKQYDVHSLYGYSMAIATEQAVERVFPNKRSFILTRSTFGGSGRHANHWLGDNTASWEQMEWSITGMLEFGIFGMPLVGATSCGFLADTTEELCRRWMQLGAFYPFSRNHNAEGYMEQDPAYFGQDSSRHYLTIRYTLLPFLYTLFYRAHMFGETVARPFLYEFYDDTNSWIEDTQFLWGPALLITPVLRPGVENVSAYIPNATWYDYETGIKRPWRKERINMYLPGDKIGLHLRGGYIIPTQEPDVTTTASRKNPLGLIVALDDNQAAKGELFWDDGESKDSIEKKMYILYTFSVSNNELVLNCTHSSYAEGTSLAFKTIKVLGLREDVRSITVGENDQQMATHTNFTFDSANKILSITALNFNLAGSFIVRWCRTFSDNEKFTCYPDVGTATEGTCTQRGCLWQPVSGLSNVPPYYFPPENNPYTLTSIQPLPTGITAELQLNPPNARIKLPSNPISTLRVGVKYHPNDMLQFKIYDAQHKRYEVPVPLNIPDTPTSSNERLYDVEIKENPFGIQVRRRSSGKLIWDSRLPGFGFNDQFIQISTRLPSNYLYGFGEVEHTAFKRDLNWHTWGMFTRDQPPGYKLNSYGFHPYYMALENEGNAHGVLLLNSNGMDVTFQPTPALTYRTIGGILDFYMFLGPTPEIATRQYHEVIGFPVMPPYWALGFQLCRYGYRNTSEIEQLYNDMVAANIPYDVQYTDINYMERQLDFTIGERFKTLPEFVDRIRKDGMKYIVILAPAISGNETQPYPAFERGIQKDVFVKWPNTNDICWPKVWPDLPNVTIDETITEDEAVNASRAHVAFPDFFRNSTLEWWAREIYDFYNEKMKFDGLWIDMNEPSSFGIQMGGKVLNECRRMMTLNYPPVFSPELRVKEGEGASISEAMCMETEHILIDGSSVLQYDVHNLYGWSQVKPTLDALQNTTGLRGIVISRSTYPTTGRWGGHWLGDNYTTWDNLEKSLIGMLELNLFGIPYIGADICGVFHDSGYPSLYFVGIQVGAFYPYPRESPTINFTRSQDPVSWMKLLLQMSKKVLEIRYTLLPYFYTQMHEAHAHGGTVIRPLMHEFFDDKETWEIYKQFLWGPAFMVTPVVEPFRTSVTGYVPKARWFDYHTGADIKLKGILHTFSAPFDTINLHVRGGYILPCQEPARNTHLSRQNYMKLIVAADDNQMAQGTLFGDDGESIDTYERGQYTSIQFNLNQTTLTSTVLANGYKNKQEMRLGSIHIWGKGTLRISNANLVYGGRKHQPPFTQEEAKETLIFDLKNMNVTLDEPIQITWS

## OC[C@H]1O[C@@H](O[C@H]2[C@H]3OC[C@@H]2OC(O)[C@H]3O)[C@H](O)[C@@H](O)[C@H]1O (mixture of isomers) [Agarobiose, agarobiose]
[1]
  LPS-induced IL-10 production: inhibition of LPS-induced IL-10 production
[2]
  increase in the cyclooxygenase 2 mRNA synthesis induced by LPS: not suppressed
[3]
  production of prostaglandin E2 from arachidonic acid: not suppressed

## OCC1OC(OC2C3COC2C(O)C(OC2C(O)C(CO)OC(OC4C5COC4C(O)C(OC4C(O)C(CO)OC(OC6C7COC6C(O)C(O)O7)C4O)O5)C2O)O3)C(O)C(O)C1O (centres unmarked) [Agarohexaose, agarohexaose]
[1]
  LPS-induced IL-10 production: inhibition of LPS-induced IL-10 production
[2]
  increase in the cyclooxygenase 2 mRNA synthesis induced by LPS: not suppressed
[3]
  production of prostaglandin E2 from arachidonic acid: not suppressed
[4]; substrate Maltose, 0.2 mM
  Remaining activity (%): 98%
[4]; substrate Maltose, 0.5 mM
  Remaining activity (%): 100%
[4]; substrate Maltose, 1.0 mM
  Remaining activity (%): 91%
[4]; substrate Maltose, 2.0 mM
  Remaining activity (%): 92%
[4]; [6]
  Remaining activity (%): 100%
[4]; [7]
  Remaining activity (%): 97%
[4]; [8]
  Remaining activity (%): 96%
[4]; [9]
  Remaining activity (%): 97%
[4]; substrate Trehalose, 0.2 mM
  Remaining activity (%): 100%
[4]; substrate Trehalose, 0.5 mM
  Remaining activity (%): 100%
[4]; substrate Trehalose, 1.0 mM
  Remaining activity (%): 100%
[4]; substrate Trehalose, 2.0 mM
  Remaining activity (%): 93%
[5]
  remaining activity at 200 µM: 92%
  remaining activity at 500 µM: 85%
  remaining activity at 1000 µM: 81%
  remaining activity at 2000 µM: 70%

## OCC1OC(OC2C3COC2C(O)C(OC2C(O)C(CO)OC(OC4C5COC4C(O)C(O)O5)C2O)O3)C(O)C(O)C1O (centres unmarked) [Agarotetraose, agarotetraose]
[4]; substrate Maltose, 0.2 mM
  Remaining activity (%): 97%
[4]; substrate Maltose, 0.5 mM
  Remaining activity (%): 95%
[4]; substrate Maltose, 1.0 mM
  Remaining activity (%): 100%
[4]; substrate Maltose, 2.0 mM
  Remaining activity (%): 98%
[4]; [6]
  Remaining activity (%): 100%
[4]; [7]
  Remaining activity (%): 96%
[4]; [8]
  Remaining activity (%): 97%
[4]; [9]
  Remaining activity (%): 91%
[4]; substrate Trehalose, 0.2 mM
  Remaining activity (%): 100%
[4]; substrate Trehalose, 0.5 mM
  Remaining activity (%): 100%
[4]; substrate Trehalose, 1.0 mM
  Remaining activity (%): 100%
[4]; substrate Trehalose, 2.0 mM
  Remaining activity (%): 93%
[5]
  remaining activity at 200 µM: 92%
  remaining activity at 500 µM: 85%
  remaining activity at 1000 µM: 83%
  remaining activity at 2000 µM: 72%
